In brackets after ≈: the same amount, converted by molar mass. Read-outs that look alike come from different tables or passages of the source.
How the values were obtained:
[1] = Cytotoxicity assay (resazurin) on RAW 264.7 macrophages; format: cell-based, murine; details: mouse
Method: The murine macrophage RAW 264.7 cell line was grown in DMEM (Dulbecco’s modified Eagle’s medium) containing 1% penicillin-streptomycin, 1% nonessential amino acids (NEA), and 10% HIFBS at 37 °C, and 5% CO2 in a humidified environment. A reverse Etaluma fluorescence microscope was used to view the cells every day, and the growth media was replaced every 72 h. At 80% confluence, cells were isolated using 0.25% Trypsine-EDTA (Gibco, MT, USA).
The murine macrophages, RAW 264.7 cells, were plated into a 96-well cell culture treated flat-bottomed plate ([…], Inc., Newton, NC 28658, USA) at a density of 10 × 10^4 cells/100 μL/well and incubated overnight to enable cell adhesion. A fresh complete medium containing serially diluted concentrations of crude extract, fractions, and compounds was used to replace the previous medium. The final assay concentration values for extracts/fractions and compounds varied from 400 μg/mL to 0.8 μg/mL and 100–0.16 μg/mL, respectively. Podophyllotoxin (Sigma-Aldrich, Munich, Germany) was used as a positive control at a maximum dose of 10 μM. After 48 h of incubation, 10 μL of resazurin solution (0.15 mg/mL dissolved in PBS) was added to each well, and the plates were incubated for an additional 4 h. Fluorescence data were finally recorded with a Magellan Infinite M200 plate reader (Tecan, Germany) at excitation and emission wavelengths of 530 nm and 590 nm, respectively.
(§1) The resulting fluorescence readings were used to calculate the growth inhibition percentages relative to the negative control for each sample and for each of the tested doses. GraphPad Prism 8.0 software was used to generate concentration-response curves from the nonlinear regression fit to determine the median inhibitory or cytotoxic concentration (IC50/CC50). The resistance index (RI) for antiplasmodial tests was calculated as the ratio between the samples’ IC50 values for the chloroquine-sensitive strain 3D7 and the multiresistant strain Dd2 [69]. Inhibitors with an RI value below 1 were considered to act preferentially on the resistant strain. Based on each inhibitor’s antiparasitic efficacy (IC50) and cell toxicity (CC50), selectivity indices (SI) were calculated [SI = CC50 (RAW)/IC50 (Parasites)]. Samples were classified as poorly toxic to RAW cells if their SI values were greater than 10 [70].

[2] = test system: chloroquine-sensitive 3D7 strain of Plasmodium falciparum (Pf3D7); experiment: Antiplasmodial SYBR Green I fluorescence assay, Pf3D7 strain; format: cell-based; details: read-out: Antiplasmodial Activity Pf3D7 IC50 ± SD
Source text: (§2) The parasite strains used in this study are continuously cultured at the Antimicrobial and Biocontrol Agents Unit of the University of Yaoundé I, and were graciously provided by BEI Resources (https://www.beiresources.org (accessed on 16 February 2019)). They comprise the Leishmania donovani strain (1S(MHOM/SD/62/1S), the multiresistant (PfDd2), and the chloroquine-sensitive (Pf3D7-(MRA-102)) strains of Plasmodium falciparum. RPMI 1640 media supplemented with 0.2% sodium bicarbonate (Sigma Aldrich, Billings, MT, USA), 0.5% Albumax II (Gibco), 1% hypoxanthine 100X (Gibco, Billings, MT, USA), 25 mM HEPES, and 0.04% gentamicin (Sigma Aldrich) was used to sustain P. falciparum strains in sterile petri dishes. Fresh red blood cells from healthy O^+ human volunteers were also added to the medium. These cells were suspended at 4% hematocrit (v/v) and incubated at 37 °C in a humidified environment with 5% CO2. To regularly maintain the culture, fresh medium was added to the culture every day. Thin blood smears stained with 10% Giemsa were used to microscopically monitor cell-cycle transition and parasitemia under immersion oil.
(§3) The antiplasmodial efficacy of the samples was evaluated using the SYBR Green I-based fluorescence assay, as previously reported by Smilkstein et al., on a sorbitol-synchronized ring stage culture of Plasmodium falciparum (PfDd2 and Pf3D7 strains). The test relies on the development of intense fluorescence following SYBR green binding to the exposed DNA found in wells containing healthy cells. Ninety microliters of parasites prepared with 1% hematocrit and 2% parasitemia and 10 μL of test sample extracts, fractions, isolated chemicals, chloroquine, and artemisinin were each added in triplicate into wells of a flat-bottomed microplate. The final test concentration values for the samples varied from 50 μg/mL-0.08 μg/mL and 100 μg/mL-0.16 μg/mL for extract/fractions. Following a 72 h incubation at 37 °C, 100 μL of SYBR Green I solution prepared with lysis buffer (0.2 μL of 10,000 SYBR Green I per mL of lysis buffer) made of EDTA (5 mM), Tris (20 mM; pH 7.5), Triton X-100 (0.08%; v/v), and saponin (0.008%; m/v) was added to each well. Fluorescence measurements were taken using an Infinite M200 microplate reader (Tecan, MT, USA) at emission and excitation wavelengths of 538 and 485 nm, respectively.
as §1

[3] = test system: multidrug-resistant Dd2 strain of Plasmodium falciparum (PfDd2); experiment: Antiplasmodial SYBR Green I fluorescence assay, PfDd2 strain; format: cell-based; details: Plasmodium falciparum
Source text: as §2, §3, §1

[4] = test system: promastigote form of Leishmania donovani (1S(MHOM/SD/62/1S)); experiment: Antileishmanial resazurin-based assay on promastigotes; format: cell-based; details: for IC50: Leishmania donovani, read-out: Antileishmanial Activity IC50 ± SD; for Antileishmanial Selectivity (SI): SI = CC50 against macrophages/IC50 against promastigotes
Method: A T-75 cm^2 cell culture flask was filled with complete Medium 199 [M199 supplemented with 10% heat-inactivated fetal bovine serum (HIFBS) and 100 IU/mL penicillin/streptomycin (Sigma, Darmstadt, Germany)] and used to grow the promastigote forms of Leishmania donovani. Every 72 h, flasks were subcultured and incubated at 28 °C.
The resazurin-based assay was used to evaluate the antileishmanial activity of the extract (100 μg/mL–0.16 μg/mL), major fractions (100 μg/mL–0.16 μg/mL), and isolated compounds (50 μg/mL–0.08 μg/mL) against the promastigote form of Leishmania donovani. Briefly, 10 μL of inhibitors at various triplicate doses (as prescribed for the antiplasmodial assay) were added to 90 μL of promastigotes from a logarithmic phase culture at a density of 4.10^5 parasites/mL. The plates were incubated for 28 h at 28 °C, and 10 μL of resazurin solution (Sigma, Darmstadt, Germany) was added. Amphotericin B (Sigma, Darmstadt, Germany) (10 μg–0.016 μg/mL) and 0.1% DMSO-treated wells were used as the […], respectively. After a further 44 h of incubation, plates were read using a Magelan Infinite M200 fluorescence plate reader (Tecan, Männedorf, Switzerland) at excitation and emission wavelengths of 530 and 590 nm, respectively.
as §1

[5] = 3D7, Pf3D7 strain, ring stage, 72 h
[6] = DD2, PfDd2 strain, ring stage, 72 h, read-out: Antiplasmodial Activity PfDd2 IC50 ± SD
[7] = L. donovani promastigotes, 28 °C
[8] = DD2, 72 h, read-out: Antiplasmodial Activity PfDd2 IC50 ± SD, PfDd2 strain, ring stage, 72 h
[9] = RAW 264.7 macrophages, 48 h incubation, resazurin, read-out: Cytotoxicity on RAW 264.7 Cells CC50 ± SD

Row | SMILES | IC50 [2, 5] [µg/mL] | IC50 [3, 6] [µg/mL] | IC50 [4, 7] [µg/mL] | Antileishmanial Selectivity (SI) [4] | also measured
1 | CC1(C)CC[C@]2(C(=O)O)CC[C@]3(C)C(=CCC4[C@@]5(C)C[C@@H](O)[C@H](O)C(CO)(CO)C5CC[C@]43C)C2[C@@H]1O (stereo partly shown) [Bellericagenin B (2), bellericagenin B] | 107.7 ± 0.37 (≈ 207 µM) | 34.02 ± 0.09 (≈ 65.3 µM) | 6.5 ± 0.01 (≈ 12.5 µM) | >61.54 | CC50 at 48 h [1]: > 400 µg/mL
2 | COc1ccc(-c2cc(=O)c3c(O)c(OC)c(OC)cc3o2)cc1OC [Belamcanidin (8), Belamcanidin] | 104.9 ± 0.39 (≈ 293 µM) | 50.97 ± 0.37 (≈ 142 µM) | 22.21 ± 0.08 (≈ 62 µM) | >18.013 | CC50 at 48 h [1]: > 400 µg/mL
3 | C[C@@H]1CC[C@H]2[C@@H](C)C(=O)O[C@@H]3O[C@@]4(C)CC[C@@H]1[C@]32OO4 [Artemesin, artemisinin, reference compound] | 0.02 (≈ 0.0708 µM) | 0.024 ± 0.24 (≈ 0.085 µM) | – | – | –
4 | C=C1C2C(OC3CC(=O)OC4(C)COC(=O)CC4C32C)C(OC(=O)C(O)C(C)CC)C2(C)C(c3ccoc3)CC(=O)C12O (stereo not shown) [Rohituka-3 (5), rohituka-3] | 68 ± 0.02 (≈ 113 µM) | – | 23.35 ± 0.21 (≈ 38.9 µM) | >17.13 | CC50 at 48 h ([1]; RAW 264.7 macrophage cells, RAW 264.7 macrophages, 48 h incubation, resazurin, read-out: Cytotoxicity on RAW 264.7 Cells CC50 ± SD): > 400 µg/mL; IC50 [3, 8]: 15.9 ± 0.33 µg/mL (≈ 26.5 µM)
5 | C=C1[C@@H]2CC[C@@]3(C)[C@H](c4ccoc4)OC(=O)C[C@]13O[C@H]1CC(=O)C(C)(C)[C@H](CC(=O)OC)[C@]12C [Methylangolensate (4), methyl angolensate] | – | – | – | 2.81 | CC50 at 48 h [1, 9]: 72.7 µg/mL (≈ 155 µM); IC50 ([2]; 3D7, 72 h): 165.19 ± 0.06 µg/mL (≈ 351 µM); IC50 [3, 8]: 20.5 ± 0.45 µg/mL (≈ 43.6 µM); IC50 [4]: 25.8 ± 0.27 µg/mL (≈ 54.9 µM)
6 | CCN(CC)CCCC(C)Nc1ccnc2cc(Cl)ccc12 (stereo not shown) [Chloroquine, Chloroquine phosphate, reference compound] | – | – | – | – | IC50 ([2]; 3D7, 72 h): 0.022 ± 0.25 µg/mL; IC50 ([3]; DD2, 72 h, read-out: Antiplasmodial Activity PfDd2 IC50 ± SD): 0.085 ± 0.01 µg/mL
7 | COc1cc([C@@H]2c3cc4c(cc3[C@H](O)[C@H]3COC(=O)[C@H]23)OCO4)cc(OC)c1OC [Podophyllotoxin, reference compound] | – | – | – | – | CC50 at 48 h [1, 9]: 0.71 ± 0.2 µg/mL (≈ 1.71 µM)

Reference: PMC10609173, “Antiplasmodial and Antileishmanial Activities of a New Limonoid and Other Constituents from the Stem Bark of Khaya senegalensis” (Molecules, 2023)
